Experimental data reported in US6265445A, “Antiarrhythmic compounds” (priority 1997, dated 2001).
Where two headings read alike, the source gives them in different places.

Legend:
[1] = system: Purkinje's fibres isolated from dog heart; assay: Intracellular microelectrode technique: action potential parameters, Purkinje's fibres; design: species or system mongrel dogs
Experimental: The method used is essentially in agreement with the method of Papp et al. [J. Cardiovascular Pharmacol. Ther. 1, 287-296 (1996)].
Right ventricular papillary muscle and Purkinje's fibres were prepared from the hearts of mongrel dogs (weighing 5 to 10 kg each). The preparations were placed into an organ bath (37° C.) containing modified Tyrode's nutrient medium. The preparations were excited by a basal frequency of 1 Hz. During the experiments, the frequency of stimulation was varied under broad limits by a computer-guided stimulator. The intracellular action potentials were registered by using glass capillary microelectrodes filled with 3 N potassium chloride solution (standard intracellular microelectrode techniques). The resting potential (RP), the amplitude of the action potential (APA) as well as the duration of the action potential (APD) were measured by using an IBM 386 compatible computer by means of an own-developed software. The compounds under test were directly added into the organ bath after dilution of the stock solutions according to the final concentrations desired. The effects of the compounds were observed after an incubation time of 30 to 40 minutes.

[2] = system: occlusion and reperfusion arrhythmias in anaesthetized dogs; assay: Occlusion and reperfusion arrhythmias following acute coronary ligation in anaesthetized dogs; assay type: in vivo, mongrel dogs
Experimental: The method used is essentially in agreement with the method of Vegh et al. [Basic Res. Cardiol. 82, 159-171 (1987)].
Mongrel dogs of both sexes weighing 10 to 20 kg each were anaesthetized by a mixture of chloralose (60 mg/kg) and urethane (200 mg/kg) and the animals were maintained on artificial respiration. After opening the chest, the ramus descendens anterior (LAD) branch of the left coronary artery of heart was prepared from the first main collateral branch and a loose loop from surgical thread was placed around it. During our experiments, the blood pressure of the animal was measured by using a cannule introduced to the left femoral artery and even the standard ECG parameters by using needle electrodes were continuously registered. The arrhythmias were induced by the occlusion for 25 minutes of a loop placed round the LAD. The survival after lethal arrhythmias and frequency of the arrhythmias were registered. The 28 dogs used in the experiments were divided into three groups. The compound of Example 15 was administered in a dose of 1 mg/kg to 8 animals; d-sotalol was given in a dose of 3 mg/kg to 10 animals by a single intravenous injection 10 minutes before compression of the coronary vessel. The control dogs (10 animals) received 5 ml of physiological saline solution in the same manner as the treated animals.
By using this method it can be stated whether the substance investigated would be effective for protection against arrhythmias following the ligation of the coronary artery.

[3] = system: occlusion and reperfusion arrhythmias in anaesthetized rabbits; assay: Occlusion and reperfusion induced arrhythmias following acute coronary artery ligation in anaesthetized rabbits; assay type: in vivo, male rabbits; conditions: 0.03 mg/kg
Experimental: The method used is essentially in agreement with the method of Thiemermann et al. [Br. J. Pharmacol. 97, pp. 401-408 (1989)].
A loose surgical thread loop was placed round the left circumflex coronary artery of the heart following thoracotomy in pentobarbital (30 mg/kg i.v.) anaesthetized male rabbits (weighing 2 to 3 kg); both ends of the thread loop were led out from the chest through an elastic tube. Standard electrocardiogram was registered by using needle electrodes under the skin. The blood pressure of animals was continuously measured by using a catheter placed into the common carotid artery. After stabilization of the blood pressure and heart frequency, the loose loop was tightened to establish a regional myocardial ischaemia. After 10 minutes of ischaemia, the ligature was released and a reperfusion for 10 minutes was established. The survival, the incidence of arrhythmias, the time of onset of arrhythmia and the length of episodes were registered. The animals received physiological saline solution (control) intravenously (2 ml/kg) or 0.03 mg/kg of the compound of Example 15 or a 3 mg/kg dose of d-sotalol at 5 minutes before the occlusion.
By using this method, it can be stated whether the compound under test would be effective for the protection from arrhythmias following coronary artery ligation.

[4] = system: right ventricular papillary muscle; assay: Measurement of the contractile force in vitro; design: species or system rabbits; conditions: 1 Hz; expected therapeutic concentration
Experimental: The method used is essentially in agreement with the method of Virag et al. [Gen. Pharmac. 27, pp. 551-556 (1996)].
Papillary muscles of hearts of rabbits (weighing 2 to 3 kg each) were prepared and placed into an organ bath (37° C.) containing modified Tyrode's nutrient medium. The preparations were stimulated by point-stimulation with a basal frequency of 1 Hz. The contractile force was measured by using an auxotonic method. The compounds under test were directly added into the organ bath after dilution of the stock solution according to the final concentration desired. The effects of compounds were observed after an incubation period of 30 to 45 minutes.
Using this method used information can be obtained concerning the direct cardiac effects of the compounds investigated. The effect of the compound of Example 15 on the contractile force is illustrated on the right ventricular papillary muscle at a frequency of 1 Hz in FIG. 2.

[5] = system: isolated right ventricular trabecule of dog heart; assay: Extracellular electrophysiological measurements: impulse conduction time and effective refractory period; design: species or system mongrel dogs; conditions: for activation at 2 µM / activation at 10 µM: Canis lupus familiaris
Experimental: Right ventricular trabecules were prepared from the heart of mongrel dogs (weighing 5 to 10 kg each). The surviving heart pieces were placed into an organ bath (37° C.) containing modified Tyrode's nutrient medium and excited by point stimulation with a basal frequency of 1 Hz. Extracellular bipolar platinum electrodes were placed on the surface of the preparations, by means of which the propagation of the superficial potentials were registered; thus, the determination of the time of impulse conduction or the rate of impulse conduction, respectively, and the effective refractory period (ERP) became possible. During our experiments,the frequency of stimulation was temporarily varied from 0.5 Hz up to 3 Hz. The tested compounds were directly added to the organ bath after dilution of the stock solution according to the desired final concentration.

[6] = 1 Hz, read-out: Prolongation (%) of ERP
[7] = 1 Hz, read-out: Prolongation (%) of impulse conduction time
[8] = 3 Hz, read-out: Prolongation (%) of ERP
[9] = 3 Hz, read-out: Prolongation (%) of impulse conduction time

## Cc1cccc(C)c1OCC(C)N(C)CCc1ccc(NS(C)(=O)=O)cc1.Cl (stereo not drawn) [Example 15, N-[4-[2-[N-Methyl-N-[2-(2,6-dimethylphenoxy)-1-methylethyl]amino]ethyl]phenyl]methanesulfonamide hydrochloride]
[1]; 2 μM and 5 μM
  effect on APD on Purkinje's fibres (in words): abbreviated APD on Purkinje's fibres of the dog
[1]; 2 μM, N 3
  APA (amplitude of the action potential): 112.7 ± 3.9 mV
  APD50 (time of 50% repolarization): 180.7 ± 14.8 ms
  APD90 (time of 90% repolarization): 400.0 ± 47.4 ms
  MDP (maximal diastolic potential): -81.7 ± 2.4 mV
  Vmax (maximum rate of depolarization): 392.3 ± 23.7 V/s
[1]; 5 μM, 1 Hz, N = 6
  APA: 111.0 ± 2.4 mV
  APD50: 121.3 ms
  APD90: 279.0 mS
  RP: -86.0 ± 2.0 mV
  Vmax: 439.3 V/s
[2]; 1 mg/kg i.v.
  Complete survival, animals: 7/8
  Complete survival, percent: 87.5%
[2]; 1 mg/kg, versus d-sotalol 3 mg/kg
  protection from arrhythmogenic effects of ligation and reperfusion (in words): protected from the arrhythmogenic effects of ligation and reperfusion of the coronary artery to a higher degree than a dose of 3 mg/kg of d-sotalol
[2]; occlusion, 1 mg/kg i.v.
  ES (extrasystole): 36.6 ± 84.1
  VF (ventricular fibrillation), animals: 1/8
  VF (ventricular fibrillation), percent: 12.5%
  VT (ventricular tachycardia), animals: 1/8
  VT (ventricular tachycardia), percent: 12.5%
[2]; reperfusion, 1 mg/kg i.v.
  VF (ventricular fibrillation), animals: 0/7
  VF (ventricular fibrillation), percent: 0%
[3]
  antiarrhythmic effect against reperfusion arrhythmias (in words): strong antiarrhythmic effect
[4]
  negative inotropic action (in words): did not induce any negative inotropic action
[5]; [6]
  activation at 2 µM: 11.6%
  activation at 10 µM: 22.8%
[5]; [7]
  activation at 2 µM: 11.1%
  activation at 10 µM: 42%
[5]; [8]
  activation at 2 µM: 13.6%
  activation at 10 µM: 31.3%
[5]; [9]
  activation at 2 µM: 13.4%
  activation at 10 µM: 73.8%
[5]; concentrations of Table 1
  effect on effective refractory period (in words): simultaneous prolongation of the effective refractory period (ERP)
  effect on impulse conduction (in words): significantly prolonged the time of impulse conduction in a frequency-dependent manner
